According to US20180098993A1, “USE OF (2R, 6R)-HYDROXYNORKETAMINE, (S)-DEHYDRON[…] OTHER STER[…] AND HYDROXYLATED METABOLITES OF (R,S)- KETAMINE IN THE TREATMENT OF DEPRESSION AND NEUROPATHIC PAIN” (THE UNITED STATES OF AMERICA, AS REPRESENTED BY THE …, priority 2011, published 2018):
Structures can show the parent of a compound that is named as a salt. Where two headings read alike, the source gives them in different places.

Legend:
NMDA receptor = NMDA receptor inhibition; assay type: binding; conditions: for Ki: read-out: NMDAR Ki
Experimental: Certain compounds of Formula I discussed in this disclosure were tested in the above serine racemase assay, for NMDA receptor inhibition and inhibition of the nicotinic acetylcholine receptor subtype α7. The assay for nicotinic acetylcholorine receptor subtype α7 is given below in Example 6.

α3β4 nAChR = target: T1, α3β4 nAChR (Rattus norvegicus, UniProt P04757+P12392); assay: nicotine-stimulated 86Rb+ efflux in HEK293 cells expressing α3β4 nAChR; whole-cell patch clamp; assay type: cell-based
T1 construct: expressed in transfected cells; host or cells: HEK293
Source text: (§1) Without wishing to be bound to any particular theory applicants believe certain compounds of Formula I exert activity via serine racemase inhibition. Since nicotinic acetylcholine receptors (nAChR) have been validated as a target in analgesia applicants investigated the activity of DHNK at two nAChR subtypes, α7 and α3β4 nAChR. Patch-clamp technique in a whole-cell configuration was used to examine functional activity of ketamine, norketamine, DHNK and HNK metabolites at the α7 and α3β4 neuronal […] receptors (nAChRs). The activity of these compounds at the α3β4 nAChR was investigated using nicotine-stimulated 86Rb+ efflux assays in HEK293 cells expressing the α3β4 nAChR.

α7 nAChR = target: T2, α7 nAChR (Rattus norvegicus, UniProt Q05941); assay: whole-cell patch clamp, currents evoked by acetylcholine in KXα7R1; assay type: cell-based; conditions: for current evoked by 280 micromolar acetylcholine, normalized to current elicited by ACh alone (Mean): -80 mV, n=4; for inhibition at 0.1 µM: read-out: inhibition (α7) at 100 nM
T2 construct: expressed in transfected cells; host or cells: KXα7R1
Source text: as §1
Since nicotinic acetylcholine receptors (nAChR) have been validated as a target in analgesia we have investigated the activity of DHNK ([…]) at two nAChR subtypes, α7 and α3β4 nAChR. The patch clamp in a whole cell configuration was used to examine functional activity of ketamine, norketamine, and the DHNK and HNK metabolites on currents evoked by 280 micromolar acetylcholine in the KXα7R1. The data was obtained at −80 mV and normalized to the amplitude of current elicited by ACh alone, n=4.

serine racemase [1] = target: T3, serine racemase (Homo sapiens, UniProt Q9GZT4); assay: serine racemase inhibition assay (intracellular D-serine by CE-LIF); assay type: cell-based; conditions: 36 h incubation, cell line not stated
T3 sequence (Q9GZT4 1-340): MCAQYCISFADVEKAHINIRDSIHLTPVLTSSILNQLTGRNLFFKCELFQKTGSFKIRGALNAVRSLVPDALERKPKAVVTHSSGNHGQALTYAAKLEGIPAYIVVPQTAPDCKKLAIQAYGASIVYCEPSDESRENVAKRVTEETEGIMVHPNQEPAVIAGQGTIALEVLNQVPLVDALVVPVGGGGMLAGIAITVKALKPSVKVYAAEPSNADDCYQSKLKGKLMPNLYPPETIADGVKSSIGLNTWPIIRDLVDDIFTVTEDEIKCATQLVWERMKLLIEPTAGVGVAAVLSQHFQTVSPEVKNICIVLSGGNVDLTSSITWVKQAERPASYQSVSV
Source text: The cell lines selected for this study were PC-12 pheochromocytoma derived from rat adrenal medulla, human-derived 1321N1 astrocytoma, rat-derived C6 glioblastoma, and human-derived HepG2 hepatocellular carcinoma. All of the cell lines were obtained from ATCC (Manassas, Va., USA). The PC12 cells were maintained in RPMI7 1640 with L-Gln supplemented with 10% horse serum (heat inactivated), 5% FBS, 1% sodium pyruvate solution, 1% HEPES buffer and 1% penicillin/streptomycin solution. The 1321N1 and C6 cells were maintained in DMEM with L-Gln supplemented with 10% FBS and 1% penicillin/streptomycin solution. The HepG2 cells were maintained in E-MEM supplemented with 1% L-Gln, 10% FBS, 1% sodium pyruvate solution and 1% penicillin/streptomycin solution.
(§2) Instrumentation: The CE separations were performed with a P/ACE MDQ system equipped with a laser-induced fluorescence detector (Beckman Instruments, Fullerton, Calif., USA). The laser-induced fluorescence detection was carried out with excitation at 488 nm and emission at 520 nm. […] Quantification was accomplished using area ratios calculated for FITC-D-Ser with FITCD-Arg as the internal standard, where the concentration of the internal standard was set at 5 μM. […]

[2] = plasma half-life and oral bioavailability (statement); conditions: in vivo
serine racemase [3] = target: T3, serine racemase; assay: intracellular D-serine concentration in 1321N1 astrocytoma cells; assay type: cell-based; design: host or cells: 1321N1 astrocytoma; conditions: read-out: IC50, reduction of intracellular D-serine
Source text: Applicants have determined that ketamine inhibits NMDA (N-methyl-D-aspartic acid) receptors by inhibiting serine racemase and thereby limiting the concentration of D-serine available to interact with the NMDA receptor. An indirect inhibition of SR activity by ketamine or ketamine metabolites through the inhibition of nAChR activity was hypothesized. PC12 cells were chosen to test the hypothesis since the cell line expresses active SR and α7 and α3β4 nAChRs.
The cell lines selected for this study were PC-12 pheochromocytoma derived from rat adrenal medulla, human-derived 1321N1 astrocytoma, rat-derived C6 glioblastoma, and human-derived HepG2 hepatocellular carcinoma. All of the cell lines were obtained from ATCC (Manassas, Va., USA). […]
as §2

T2 sequence (Q05941 23-502): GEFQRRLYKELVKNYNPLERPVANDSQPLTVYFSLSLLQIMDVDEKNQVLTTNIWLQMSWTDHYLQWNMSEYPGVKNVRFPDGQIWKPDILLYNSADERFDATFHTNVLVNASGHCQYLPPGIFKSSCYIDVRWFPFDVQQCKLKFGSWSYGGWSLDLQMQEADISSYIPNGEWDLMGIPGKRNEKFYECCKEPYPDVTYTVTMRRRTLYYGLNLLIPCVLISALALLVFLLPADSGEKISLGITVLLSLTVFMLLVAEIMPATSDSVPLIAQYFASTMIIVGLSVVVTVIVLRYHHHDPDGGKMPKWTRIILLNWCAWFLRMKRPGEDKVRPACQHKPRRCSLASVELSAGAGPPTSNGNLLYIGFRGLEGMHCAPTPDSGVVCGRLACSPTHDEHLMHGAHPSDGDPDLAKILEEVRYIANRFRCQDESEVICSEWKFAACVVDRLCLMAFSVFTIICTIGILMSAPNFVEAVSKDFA
T1 sequence (P04757 26-499): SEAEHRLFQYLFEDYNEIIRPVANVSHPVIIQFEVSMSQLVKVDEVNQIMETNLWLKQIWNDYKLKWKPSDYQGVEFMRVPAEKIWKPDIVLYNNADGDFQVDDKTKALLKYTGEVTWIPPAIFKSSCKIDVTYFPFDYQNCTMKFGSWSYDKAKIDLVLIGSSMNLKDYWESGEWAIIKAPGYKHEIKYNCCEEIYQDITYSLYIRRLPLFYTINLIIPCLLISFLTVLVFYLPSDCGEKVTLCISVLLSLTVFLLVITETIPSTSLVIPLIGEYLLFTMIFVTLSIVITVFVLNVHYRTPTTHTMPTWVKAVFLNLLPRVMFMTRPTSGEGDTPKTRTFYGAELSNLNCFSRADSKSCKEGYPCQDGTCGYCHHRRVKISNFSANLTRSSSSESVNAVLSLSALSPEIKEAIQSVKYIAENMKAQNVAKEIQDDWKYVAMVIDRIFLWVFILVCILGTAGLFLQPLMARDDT
T1 sequence (P12392 21-495): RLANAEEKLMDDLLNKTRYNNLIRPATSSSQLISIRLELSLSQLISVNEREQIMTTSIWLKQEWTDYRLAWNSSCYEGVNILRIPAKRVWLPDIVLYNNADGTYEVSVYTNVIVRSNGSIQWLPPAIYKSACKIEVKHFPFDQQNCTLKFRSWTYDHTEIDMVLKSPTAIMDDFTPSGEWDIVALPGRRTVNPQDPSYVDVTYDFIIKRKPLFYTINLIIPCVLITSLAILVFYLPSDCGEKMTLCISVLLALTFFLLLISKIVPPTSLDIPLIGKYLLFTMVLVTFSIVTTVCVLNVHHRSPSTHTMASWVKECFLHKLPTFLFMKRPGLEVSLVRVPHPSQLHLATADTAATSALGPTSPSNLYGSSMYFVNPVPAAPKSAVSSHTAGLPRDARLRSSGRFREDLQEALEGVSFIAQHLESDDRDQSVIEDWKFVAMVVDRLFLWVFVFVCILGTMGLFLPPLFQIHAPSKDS

Compound | activity at α7 nAChR (α7 nAChR) | Ki (NMDA receptor) | current evoked by 280 micromolar acetylcholine, normalized to current elicited by ACh alone (Mean) (α7 nAChR; 100 nM) | current evoked by 280 micromolar acetylcholine, normalized to current elicited by ACh alone (Mean) (α7 nAChR; 1000 nM) | inhibition at 0.1 µM (α7 nAChR) | further results
N[C@@]1(c2ccccc2Cl)CCC[C@@H](O)C1=O [(2R,6R; 2S,6S)-hydroxynorketamine] |  |  |  |  |  | activity at the NMDA receptor (NMDA receptor): not active
CNC1(c2ccccc2Cl)CCCCC1=O (centres unmarked) [ketamine] | inactive |  |  |  |  | IC50 (α3β4 nAChR): 10000 nM
N[C@]1(c2ccccc2Cl)CCCCC1=O [(S)-norKet, (S)-norketamine, reference compound] |  | 2250 ± 220 nM |  |  |  | IC50 (serine racemase [1]): 50 to 120 nM
N[C@@]1(c2ccccc2Cl)CCC[C@@H](O)C1=O [(2S,6S)-HNK, (2S,6S)-6-Hydroxynorketamine Hydrochloride] |  | 21200 nM | 0.461 | 0.361 | 54% | plasma half-life [2]: long; oral bioavailability [2]: orally bioavailable
N[C@@]1(c2ccccc2Cl)CCC=CC1=O [(R)-DHNK, (R)-5,6-dehydroxynorketamine hydrochloride] |  | 74600 nM |  |  |  | 
NC1(c2ccccc2Cl)CCCCC1=O (racemic) [(R,S)-norKet, norketamine] | inactive |  | 0.548 | 0.287 | 46% | 
N[C@]1(c2ccccc2Cl)CCC[C@H](O)C1=O (stereo in doubt) [(2R,6R)-HNK, (2R,6R)-6-Hydroxynorketamine Hydrochloride] |  | > 100000 nM | 0.489 | 0.354 | 51% | 
NC1(c2ccccc2Cl)CCC=CC1=O (racemic) [(R,S)-DHNK, (R,S)-dehydronorketamine] | potent inhibitor |  | 0.407 | 0.205 |  | activity at α3β4 nAChR (α3β4 nAChR): inactive; IC50 (serine racemase [3]): 16.4 nM; plasma half-life [2]: long; oral bioavailability [2]: orally bioavailable; IC50 (α7 nAChR; read-out: IC50 (α7)): ~50 nM; IC50 (α7 nAChR; read-out: IC50 at α7 nAChR): 50 nM
N[C@]1(c2ccccc2Cl)CCC=CC1=O [(S)-DHNK, (S)-1-amino-2′-chloro-5,6-dihydro-[1,1′-biphenyl]-2(1H)-one] |  | 39000 nM |  |  |  | 
N[C@@]1(c2ccccc2Cl)CCCCC1=O [(R)-norKet, (R)-norketamine, reference compound] |  | 26500 nM |  |  |  | IC50 (serine racemase [1]): 40 to 80 nM
